# Assay results published in article PMC11995724, “Antibiotic target discovery by integrated phenotypic and activity-based profiling of electrophilic fragments” (Cell chemical biology, 2025).
# Test: in vitro
# Conditions: human, hek293t cells
row,Compound,"viability at 48 h, 25 µM [%]"
1,"C=CC(=O)NCc1n[nH]c(=O)n1C1CC1 [3-N08, N-[(4-cyclopropyl-5-oxo-4,5-dihydro-1H-1,2,4-triazol-3-yl)methyl]prop-2-enamide]",80
2,"C=CC(=O)N1CCc2c(ncn2-c2ccccc2)C1 [3-N09, 1-{1-phenyl-1H,4H,5H,6H,7H-imidazo[4,5-c]pyridin-5-yl}prop-2-en-1-one]",70.1
3,"C=CC(=O)N1CCC(C(=O)NCc2ccc(S(N)(=O)=O)cc2)CC1 [3-N10, 1-(prop-2-enoyl)-N-[(4-sulfamoylphenyl)methyl]piperidine-4-carboxamide]",85.1
4,"C=CC(=O)NC1CCn2cccc2C1 (stereo not shown) [3-N11, N-(5,6,7,8-tetrahydroindolizin-7-yl)prop-2-enamide]",71.4
5,"C=CC(=O)N1CCC(C(=O)NCc2cccc(Cl)c2F)CC1 [3-N12, N-[(3-chloro-2-fluorophenyl)methyl]-1-(prop-2-enoyl)piperidine-4-carboxamide]",87.6
6,"C=CC(=O)NC(C)c1nnc(-c2ccccc2F)s1 (stereo not shown) [3-N13, N-{1-[5-(2-fluorophenyl)-1,3,4-thiadiazol-2-yl]ethyl}prop-2-enamide]",76
7,"C=CC(=O)NC(c1ccc(F)cc1)c1ccccn1 (stereo not shown) [3-N14, N-[(4-fluorophenyl)(pyridin-2-yl)methyl]prop-2-enamide]",97
8,"C=CC(=O)NCc1cc(Cl)cc(S(C)(=O)=O)c1 [3-N15, N-[(3-chloro-5-methanesulfonylphenyl)methyl]prop-2-enamide]",76.8
9,"C=CC(=O)N[C@H](C)c1ccccc1OC(C)C [3-N16, N-[(1R)-1-[2-(propan-2-yloxy)phenyl]ethyl]prop-2-enamide]",82.5
10,"C=CC(=O)NCC1CS(=O)(=O)c2ccccc2O1 (stereo not shown) [3-N17, N-[(4,4-dioxo-2,3-dihydro-1,4lambda6-benzoxathiin-2-yl)methyl]prop-2-enamide]",79.4
11,"C=CC(=O)N1Cc2c(C(=O)O)cnn2CC1C (stereo not shown) [3-N18, 6-methyl-5-(prop-2-enoyl)-4H,5H,6H,7H-pyrazolo[1,5-a]pyrazine-3-carboxylic acid]",87
12,"C=CC(=O)NCCc1nc(C)no1 [3-N19, N-[2-(3-methyl-1,2,4-oxadiazol-5-yl)ethyl]prop-2-enamide]",74.2
13,"C=CC(=O)NCc1nc2cc(F)ccc2o1 [3-N20, N-[(5-fluoro-1,3-benzoxazol-2-yl)methyl]prop-2-enamide]",84.7
14,"C=CC(=O)NCc1cn(C2CCCC2)nc1C [3-N21, N-[(1-cyclopentyl-3-methyl-1H-pyrazol-4-yl)methyl]prop-2-enamide]",55.5
15,"C=CC(=O)NCc1ccc(C(=O)NC2CC(=O)N(C)C2)cc1 (stereo not shown) [3-N22, N-(1-methyl-5-oxopyrrolidin-3-yl)-4-[(prop-2-enamido)methyl]benzamide]",81.2
16,"C=CC(=O)N1CCC(CCO)c2ccccc21 (stereo not shown) [3-O03, 1-[4-(2-hydroxyethyl)-1,2,3,4-tetrahydroquinolin-1-yl]prop-2-en-1-one]",58.4
17,"C=CC(=O)N1CCC(C(=O)NC[C@H]2C[C@@H](O)C2)(c2ccccc2)CC1 [3-O04, 4-phenyl-1-(prop-2-enoyl)-N-{[(1s,3s)-3-hydroxycyclobutyl]methyl}piperidine-4-carboxamide]",118
18,"C=CC(=O)NCc1ccc(C(=O)N2CCCC2)cc1 [3-O05, N-{[4-(pyrrolidine-1-carbonyl)phenyl]methyl}prop-2-enamide]",71.6
19,"C=CC(=O)Nc1cc(C)c(CC)cc1OC [3-O06, N-(4-ethyl-2-methoxy-5-methylphenyl)prop-2-enamide]",82
20,"C=CC(=O)N1CCC(Cc2nc3ccc(F)cc3o2)CC1 [3-O07, 1-{4-[(6-fluoro-1,3-benzoxazol-2-yl)methyl]piperidin-1-yl}prop-2-en-1-one]",47.3
21,"C=CC(=O)Nc1ccc(C(=O)N2CCC(S(=O)(=O)NC)C2)cc1 (stereo not shown) [3-O08, N-{4-[3-(methylsulfamoyl)pyrrolidine-1-carbonyl]phenyl}prop-2-enamide]",95.4
22,"C=CC(=O)N1CCCC2(CCCCO2)C1 (stereo not shown) [3-O09, 1-{1-oxa-8-azaspiro[5.5]undecan-8-yl}prop-2-en-1-one]",57
23,"C=CC(=O)N(C)CC(=O)N1CCN(C(=O)C2CCCCC2)CC1 [3-O10, N-[2-(4-cyclohexanecarbonylpiperazin-1-yl)-2-oxoethyl]-N-methylprop-2-enamide]",93.8
24,"C=CC(=O)N1CCOCC1c1noc(C)n1 (stereo not shown) [3-O11, 1-[3-(5-methyl-1,2,4-oxadiazol-3-yl)morpholin-4-yl]prop-2-en-1-one]",51.5
25,"C=CC(=O)N1CCC(C(=O)Nc2nncn2C)(c2ccccc2)CC1 [3-O12, N-(4-methyl-4H-1,2,4-triazol-3-yl)-4-phenyl-1-(prop-2-enoyl)piperidine-4-carboxamide]",106
26,"C=CC(=O)NCC1(S(=O)(=O)CC)CC1 [3-O13, N-{[1-(ethanesulfonyl)cyclopropyl]methyl}prop-2-enamide]",48.1

row,Compound,"viability at 48 h, 25 µM [%]"
1,"C=CC(=O)N1CCC(C(=O)NCc2cnn(-c3ccccc3)c2)CC1 [3-O14, N-[(1-phenyl-1H-pyrazol-4-yl)methyl]-1-(prop-2-enoyl)piperidine-4-carboxamide]",91.1
2,"C=CC(=O)Nc1ccc2c(c1)S(=O)(=O)CC2 [3-O15, N-(1,1-dioxo-2,3-dihydro-1lambda6-benzothiophen-6-yl)prop-2-enamide]",63.9
3,"C=CC(=O)N1CCC(Cc2nccs2)C1 (stereo not shown) [3-O16, 1-{3-[(1,3-thiazol-2-yl)methyl]pyrrolidin-1-yl}prop-2-en-1-one]",98.7
4,"C=CC(=O)NCCC(=O)N1CC[S+]([O-])C(C)(C)CC1 (stereo not shown) [3-O17, N-[3-(7,7-dimethyl-1-oxo-1lambda4,4-thiazepan-4-yl)-3-oxopropyl]prop-2-enamide]",58.5
5,"C=CC(=O)NC1CCCN(C2CCCCC2)C1=O (stereo not shown) [3-O18, N-(1-cyclohexyl-2-oxopiperidin-3-yl)prop-2-enamide]",92.1
6,"C=CC(=O)N1CCC(C(=O)NCc2ccc(OC)cn2)CC1 [3-O19, N-[(5-methoxypyridin-2-yl)methyl]-1-(prop-2-enoyl)piperidine-4-carboxamide]",59
7,"C=CC(=O)N1CCCCC1c1nc2ccccc2o1 (stereo not shown) [3-O20, 1-[2-(1,3-benzoxazol-2-yl)piperidin-1-yl]prop-2-en-1-one]",82.3
8,"C=CC(=O)Nc1cnn(C2CCCC2)c1 [3-O21, N-(1-cyclopentyl-1H-pyrazol-4-yl)prop-2-enamide]",70.5
9,"C=CC(=O)NCc1cccc(C(C)(F)F)c1 [3-O22, N-{[3-(1,1-difluoroethyl)phenyl]methyl}prop-2-enamide]",136
10,"C=CC(=O)N1CCC(C(=O)NCc2ncnn2CC)CC1 [3-P03, N-[(1-ethyl-1H-1,2,4-triazol-5-yl)methyl]-1-(prop-2-enoyl)piperidine-4-carboxamide]",71.2
11,"C=CC(=O)NC1(c2ccccc2)CCOC1 (stereo not shown) [3-P04, N-(3-phenyloxolan-3-yl)prop-2-enamide]",89.3
12,"C=CC(=O)NCc1ccc(C(=O)N2CCC(C#N)CC2)cc1 [3-P05, N-{[4-(4-cyanopiperidine-1-carbonyl)phenyl]methyl}prop-2-enamide]",46.3
13,"C=CC(=O)N(C)CC(=O)Nc1ccc(N2CCC(O)CC2)cc1 [3-P06, N-({[4-(4-hydroxypiperidin-1-yl)phenyl]carbamoyl}methyl)-N-methylprop-2-enamide]",65.6
14,"C=CC(=O)NC(c1nnc2n1CCC2)C(C)C (stereo not shown) [3-P07, N-(2-methyl-1-{5H,6H,7H-pyrrolo[2,1-c][1,2,4]triazol-3-yl}propyl)prop-2-enamide]",52.1
15,"C=CC(=O)NCc1ccc(C(C)(C)C)[nH]c1=O [3-P08, N-[(6-tert-butyl-2-oxo-1,2-dihydropyridin-3-yl)methyl]prop-2-enamide]",76.4
16,"C=CC(=O)N1CCC(Cn2cnnc2)CC1 [3-P09, 1-{4-[(4H-1,2,4-triazol-4-yl)methyl]piperidin-1-yl}prop-2-en-1-one]",43.5
17,"C=CC(=O)N1CCC(C(=O)NCC(C)c2ncc(C)s2)CC1 (stereo not shown) [3-P10, N-[2-(5-methyl-1,3-thiazol-2-yl)propyl]-1-(prop-2-enoyl)piperidine-4-carboxamide]",61.4
18,"C=CC(=O)N[C@H]1CCN(S(=O)(=O)c2ccccc2)C1 [3-P11, N-[(3S)-1-(benzenesulfonyl)pyrrolidin-3-yl]prop-2-enamide]",54.4
19,"C=CC(=O)N1CCC(C(=O)N[C@H](C)c2ccc3c(c2)CCCC3)CC1 [3-P12, 1-(prop-2-enoyl)-N-[(1R)-1-(5,6,7,8-tetrahydronaphthalen-2-yl)ethyl]piperidine-4-carboxamide]",58
20,"C=CC(=O)NC1(Cc2ccccc2)CC1 [3-P13, N-(1-benzylcyclopropyl)prop-2-enamide]",61.5
21,"C=CC(=O)N1Cc2cnn(C)c2C1 [3-P14, 1-{1-methyl-1H,4H,5H,6H-pyrrolo[3,4-c]pyrazol-5-yl}prop-2-en-1-one]",87.3
22,"C=CC(=O)NCc1oc(CC)nc1C [3-P15, N-[(2-ethyl-4-methyl-1,3-oxazol-5-yl)methyl]prop-2-enamide]",74.7
23,"C=CC(=O)N(CC)Cc1nc2ccsc2c(=O)[nH]1 [3-P16, N-ethyl-N-({4-oxo-3H,4H-thieno[3,2-d]pyrimidin-2-yl}methyl)prop-2-enamide]",78.2
24,"C=CC(=O)NC(C)c1ccc(-n2nc(C)cc2C)c(F)c1 (stereo not shown) [3-P17, N-{1-[4-(3,5-dimethyl-1H-pyrazol-1-yl)-3-fluorophenyl]ethyl}prop-2-enamide]",76.1
25,"C=CC(=O)NC1CS(=O)(=O)C1 [3-P18, N-(1,1-dioxo-1lambda6-thietan-3-yl)prop-2-enamide]",105
26,"C=CC(=O)NCc1ccccc1-n1nc(C)cc1C [3-P19, N-{[2-(3,5-dimethyl-1H-pyrazol-1-yl)phenyl]methyl}prop-2-enamide]",59.1
